Laboratory results: BindingDB's records for doi:10.1021/jm00160a026 (1986)
pIC50: −log10 of the molar value.

These compounds were tested against Angiotensin-converting enzyme (Cavia porcellus) (assay: Inhibition of guinea pig angiotensin I converting enzyme).

| pIC50 | SMILES |
| --- | --- |
| 8.24 | CC(NC(CCc1ccccc1)C(=O)O)C(=O)N1CCc2ccccc2C1C(=O)O (centres undefined) |
| < 5.00 | CCOC(=O)C(CCc1ccccc1)N(C)C(C)C(=O)N1Cc2ccccc2CC1C(=O)O (centres undefined) |
| 6.36 | CCOC(=O)C(CCc1ccccc1)NC(C)C(=O)N1Cc2ccccc2CC1C(=O)OCC (centres undefined) |
| 6.89 | CC(=O)SCC(C)C(=O)N1Cc2ccccc2CC1C(=O)O (racemic) |
| 4.66 | CC(=O)SCCC(=O)N1Cc2ccccc2C1C(=O)O (centres undefined) |
| 6.52 | CCOC(=O)C(CCc1ccccc1)NC(C)C(=O)N1Cc2cc(OC)c(OC)cc2CC1C(=O)OCc1ccccc1 (centres undefined) |
| 4.32 | CC(CS)C(=O)N1CCc2ccccc2C1 (centres undefined) |
| < 6.00 | CCOC(=O)[C@H](CCc1ccccc1)N[C@@H](C)C(=O)N1Cc2ccccc2[C@@H]1C(=O)O |
| 7.36 | CCOC(=O)[C@H](CCc1ccccc1)N[C@@H](C)C(=O)N1Cc2ccccc2[C@H]1C(=O)O |
| 4.24 | O=C(O)C1c2ccccc2CN1C(=O)CCS (centres undefined) |
| 6.28 | CCOC(=O)C(CCc1ccccc1)NC(C)C(=O)N1Cc2cc(OC)c(OC)cc2CC1C(=O)OCC (centres undefined) |
| 4.31 | CC(=O)SCC(C)C(=O)N1CCc2ccccc2C1 (centres undefined) |
| 8.51 | CC(NC(CCc1ccccc1)C(=O)O)C(=O)N1Cc2ccccc2C1C(=O)O (centres undefined) |
| 4.62 | CC(=O)SCC(C)C(=O)N1Cc2ccccc2C1C(=O)O (mixture of isomers) |
